The target in this assay is T1, tyrosinase (Homo sapiens, UniProt P14679).
T1 sequence (P14679 19-529): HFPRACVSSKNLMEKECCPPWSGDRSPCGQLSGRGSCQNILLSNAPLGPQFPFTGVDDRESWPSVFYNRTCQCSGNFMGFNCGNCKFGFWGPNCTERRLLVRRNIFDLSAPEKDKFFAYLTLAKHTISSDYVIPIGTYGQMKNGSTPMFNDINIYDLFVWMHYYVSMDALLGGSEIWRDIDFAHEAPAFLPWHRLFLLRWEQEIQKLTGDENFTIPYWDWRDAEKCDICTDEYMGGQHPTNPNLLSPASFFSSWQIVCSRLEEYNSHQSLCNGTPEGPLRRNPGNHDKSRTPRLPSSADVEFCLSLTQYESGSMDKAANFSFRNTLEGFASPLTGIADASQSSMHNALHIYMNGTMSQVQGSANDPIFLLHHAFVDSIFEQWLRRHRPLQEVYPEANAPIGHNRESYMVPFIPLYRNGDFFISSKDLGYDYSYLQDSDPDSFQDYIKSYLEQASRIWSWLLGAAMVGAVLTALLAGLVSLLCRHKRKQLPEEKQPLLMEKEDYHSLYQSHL
In words: Tyrosinase inhibition. The conditions noted are these: 0.1 wt % active concentration; compared to 0.1 wt % kojic acid. The format is biochemical.

Take `COc1cc(/C=[N+](\[O-])C(C)C)ccc1O` [VAN-IPHA, (Z)—N-(4-hydroxy-3-methoxybenzylidine)propan-2-amine oxide]: the “tyrosinase inhibition activity compared to that of kojic acid” value is recorded as “negligible”.
As for `CC(C)/[N+]([O-])=C/c1ccc(O)cc1` [pHBz-IPHA, (Z)—N-(4-hydroxybenzylidene)propan-2-amine oxide], the “tyrosinase inhibition activity compared to that of kojic acid” value is “about 60%”.

(Values after patent publication US20200289392A1, “A MELANOGENESIS INHIBITOR COMPOSITION” (Dow Global Technologies LLC, priority 2017, published 2020).)
